Data from patent publication US5436229A, “Bisulfite adducts of arginine aldehydes” (Eli Lilly and Company, priority 1994, dated 1995).
Non-standard residues stand in square brackets, D forms with d. Residues, ends and D or L forms follow the SMILES beside them. dPip = O=C(O)[C@H]1CCCCN1

How the values were obtained:
[1] = target: T1, tissue plasminogen activator (t-PA) (Homo sapiens, UniProt P00750); test: Serine protease inhibition (Kass), t-PA; format: biochemical
T1 construct: purchased American Diagnostica, Greenwich, Conn

template bleeding time = test: Template Bleeding Time assay; format: in vivo, dogs; settings: 0.25, 0.50 and 1.0 mg/kg.hr, over a 240 minute time
Experimental: Whole blood cell counts, hemoglobin, and hematocrit values are determined on a 40-μl sample of citrated (3.8 percent) blood (1 part citrate:9 parts blood) with a hematology analyzer (Cell-Dyn 900, Sequoia-Turner. Mount View, Calif., U.S.A.). Gingival template bleeding times are determined with a Simplate II bleeding time device (Organon Teknika Durham, N.C., U.S.A.). The device is used to make 2 horizontal incisions in the gingiva of either the upper or lower left jaw of the dog. Each incision is 3 mm wide×2 mm deep. The incisions are made, and a stopwatch is used to determine how long bleeding occurs. A cotton swab is used to soak up the blood as it oozes from the incision. Template bleeding time is the time from incision to stoppage of bleeding. Bleeding times are taken just before administration of test compound (0 min), 60 min into infusion, at conclusion of administration of the test compound (120 min), and at the end of the experiment.
All data are analyzed by one-way analysis of variance (ANOVA) followed by Student-Neuman-Kuels post hoc t test to determine the level of significance. Repeated-measures ANOVA are used to determine significant differences between time points during the experiments. Values are determined to be statistically different at least at the level of p<0.05. All values are mean±SEM. […]

[2] = test system: coronary artery thrombosis; test: Canine Model of Coronary Artery Thrombosis; format: in vivo, dogs
Experimental: Surgical preparation and instrumentation of the dogs are as described in Jackson, et al., Circulation, 82, 930-940 (1990). Mixed-breed hounds (aged 6-7 months, either sex, Hazelton-LRE, Kalamazoo, Mich., U.S.A.) are anesthetized with sodium pentobarbital (30 mg/kg intravenously, i.v.), intubated, and ventilated with room air. Tidal volume and respiratory rates are adjusted to maintain blood PO2, PCO2, and pH within normal limits. Subdermal needle electrodes are inserted for the recording of a lead II ECG.
The left jugular vein and common carotid artery are isolated through a left mediolateral neck incision. Arterial blood pressure (ABP) is measured continuously with a precalibrated Millar transducer (model (MPC-500, Millar Instruments, Houston, Tex., U.S.A.) inserted into the carotid artery. The jugular vein is cannulated for blood sampling during the experiment. In addition, the femoral veins of both hindlegs are cannulated for administration of test compound.
A left thoracotomy is performed at the fifth intercostal space, and the heart is suspended in a pericardial cradle. A 1- to 2-cm segment of the left circumflex coronary artery (LCX) is isolated proximal to the first major diagonal ventricular branch. A 26-gauge needle-tipped wire anodal electrode (Teflon-coated, 30-gauge silverplated copper wire) 3-4 mm long is inserted into the LCX and placed in contact with the intimal surface of the artery (confirmed at the end of the experiment). The stimulating circuit is completed by placing the cathode in a subcutaneous (s.c.) site. An adjustable plastic occluder is placed around the LCX, over the region of the electrode. […] All hemodynamic and ECG measurements are recorded and analyzed with a data acquisition system (model M3000, Modular Instruments, Malvern, Pa. U.S.A.).
Electrolytic injury of the intima of the LCX is produced by applying 100-μA direct current (DC) to the anode. […] Thrombus formation proceeds spontaneously until the LCX is totally occluded (determined as zero CBF and an increase in the S-T segment). […]

[3] = Pharmacokinetic Model, oral gavage; format: in vivo; settings: dogs, single 2 mg/kg oral gavage
Experimental: Male dogs (Beagles; 18 months-2 years; 12-13 kg, Marshall Farms, North Rose, N.Y. 14516) are fasted overnight and fed Purina certified Prescription Diet (Purina Mills, St. Louis, Mo.) 240 minutes after dosing. Water is available ad libitum. The room temperature is maintained between 66°-74° F.; 45-50 percent relative humidity; and lighted from 0600-1800 hours.
Test compound is formulated immediately prior to dosing by dissolving in sterile 0.9 percent saline to a 5 mg/ml preparation. Dogs are given a single 2 mg/kg dose of test compound by oral gavage. Blood samples (4.5 ml) are taken from the cephalic vein at 0.25, 0.5, 0.75, 1,2,3,4 and 6 hours after dosing. Samples are collected in citrated Vacutainer tubes and kept on ice prior to reduction to plasma by centrifugation. Plasma samples are derivatized with dinitrophenylhydrazine and analyzed by HPLC (Zorbax SB-C8 column) eluting with methanol/500 mM sodium acetate adjusted to pH7 with phosphoric acid (60:40, v/v). Plasma concentration of test compound is recorded and used to calculate the pharmacokinetic parameters: elimination rate constant, Ke; total clearance, Clt; volume of distribution, VD; time of maximum plasma test compound concentration, Tmax; maximum concentration of test compound of Tmax, Cmax; plasma half-life, t0.5; and area under the curve, A.U.C.; fraction of test compound absorbed, F.

[4] = Index of Bioavailability (plasma TT AUC, oral vs i.v.); format: in vivo; settings: rats, oral vs i.v. bolus
Description: Assays are done in duplicate and averaged.
Each sample population represents alternating sequential time points.

human thrombin = human thrombin (Homo sapiens, UniProt P00734); test: Thrombin amidase inhibition (Kass), chromogenic substrate; format: biochemical
Outline: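 Kass, in liter per mole, was averaged over several compound concentrations, using free thrombin from a rate standard curve and free inhibitor as added minus bound. Hydrolysis of chromogenic substrate (0.25 mg/ml solution) was monitored at 405 nm with human thrombin (8 NIH units/ml solution) in Tris-NaCl buffer pH 7.4, compound in 50% aqueous methanol.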

T1 sequence (P00750 36-562): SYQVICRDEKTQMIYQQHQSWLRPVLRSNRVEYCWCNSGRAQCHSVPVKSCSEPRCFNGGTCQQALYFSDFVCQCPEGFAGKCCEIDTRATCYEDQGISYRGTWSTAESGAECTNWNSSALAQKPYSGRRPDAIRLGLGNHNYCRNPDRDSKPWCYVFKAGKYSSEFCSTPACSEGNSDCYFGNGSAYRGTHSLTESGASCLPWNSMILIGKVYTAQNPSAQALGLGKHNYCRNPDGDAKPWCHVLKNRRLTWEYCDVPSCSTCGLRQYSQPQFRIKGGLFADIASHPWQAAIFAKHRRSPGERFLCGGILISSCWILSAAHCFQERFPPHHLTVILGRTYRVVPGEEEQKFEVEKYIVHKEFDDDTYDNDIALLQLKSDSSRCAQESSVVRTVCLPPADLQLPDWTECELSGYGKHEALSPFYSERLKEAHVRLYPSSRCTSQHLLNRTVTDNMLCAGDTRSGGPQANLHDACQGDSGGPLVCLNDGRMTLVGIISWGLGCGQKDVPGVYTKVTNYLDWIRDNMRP

SMILES: Cl.Cl.N=C(N)NCCC[C@@H](C=O)NC(=O)[C@@H]1CCCN1C(=O)[C@H]1CCCCN1 [Example 1, D-Homoprolinyl-L-Prolinyl-L-Arginine Aldehyde Dihydrochloride] (H-[dPip]-Pro-Arg-aldehyde)
- Kass t-PA [1]: 0.02 L/mol × 10^6
- effect on template bleeding time (template bleeding time): no significant effect on template bleeding time
- Time to Occlusion ([2]; dose 0.25 mg/kg.hr): 60 min
- Time to Occlusion ([2]; dose 0.50 mg/kg.hr): 150 min
- Time to Occlusion ([2]; dose 1.00 mg/kg.hr): > 225 min
- A.U.C. o-infinity [3]: 4651 ng·h/mL
- Clt/F [3]: 7.28 mL/min/kg
- Cmax [3]: 1676 ng/mL
- Ke [3]: 0.0104 min.-1
- Tmax [3]: 1 to 2 h
- VD/F [3]: 0.729 L/kg
- t0.5 [3]: 67 min
- Percent Relative Activity (Index of Bioavailability) [4]: 38%
- Kass Human Thrombin (human thrombin): 46 L/mol × 10^6
